Laboratory results as given in ChEMBL document CHEMBL1125764, “Muscarinic receptor binding profile of para-substituted caramiphen analogues” (J Med Chem, 1991).

Experiments:
[1] = target: T1, Muscarinic acetylcholine receptor M1 (Rattus norvegicus, UniProt P08482); parameters: species or system Cortex
T1 sequence (P08482 whole entry): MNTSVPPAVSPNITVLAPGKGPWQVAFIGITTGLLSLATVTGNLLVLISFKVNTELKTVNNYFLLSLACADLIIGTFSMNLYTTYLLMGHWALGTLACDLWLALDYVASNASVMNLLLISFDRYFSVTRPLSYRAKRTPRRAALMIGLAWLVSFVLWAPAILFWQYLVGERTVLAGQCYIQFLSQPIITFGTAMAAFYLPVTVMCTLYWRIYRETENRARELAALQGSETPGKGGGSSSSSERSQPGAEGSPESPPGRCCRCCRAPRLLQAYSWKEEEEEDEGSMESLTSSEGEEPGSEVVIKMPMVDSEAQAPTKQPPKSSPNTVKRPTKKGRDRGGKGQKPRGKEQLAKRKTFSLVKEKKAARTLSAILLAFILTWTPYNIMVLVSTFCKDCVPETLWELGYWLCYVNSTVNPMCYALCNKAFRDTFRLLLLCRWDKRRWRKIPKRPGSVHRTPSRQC

[2] = target: T2, Muscarinic acetylcholine receptor M2 (Rattus norvegicus, UniProt P10980); assay: Displacement of [3H](-)-quinuclidinyl benzilate(QNB) from muscarinic (M2) receptor in rat heart homogenates; format: tissue-based
T2 sequence (P10980 whole entry): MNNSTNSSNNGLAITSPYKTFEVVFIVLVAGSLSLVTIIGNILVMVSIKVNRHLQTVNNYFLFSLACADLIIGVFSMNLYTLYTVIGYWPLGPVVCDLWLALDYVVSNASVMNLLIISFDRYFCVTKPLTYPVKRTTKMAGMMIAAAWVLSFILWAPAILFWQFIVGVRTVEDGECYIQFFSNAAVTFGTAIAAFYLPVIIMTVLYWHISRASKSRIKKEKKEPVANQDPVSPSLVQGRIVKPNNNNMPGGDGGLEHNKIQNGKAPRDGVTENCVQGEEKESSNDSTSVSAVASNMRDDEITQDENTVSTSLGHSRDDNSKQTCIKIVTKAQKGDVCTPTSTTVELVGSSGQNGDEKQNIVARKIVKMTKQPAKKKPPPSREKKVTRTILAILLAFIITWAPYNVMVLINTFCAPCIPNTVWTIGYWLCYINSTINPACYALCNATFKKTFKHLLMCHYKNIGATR

Compound | Ki [1] [nM] | Ki [2] [nM]
CCN(CC)CCOC(=O)C1(c2ccc(N)cc2)CCCC1 | 20 | 116
CCN(CC)CCOC(=O)C1(c2ccc(N3CCCC3)cc2)CCCC1 | 151 | 551
CCN(CC)CCOC(=O)C1(c2ccc(-n3cnnn3)cc2)CCCC1 | 14.5 | 432
CCN(CC)CCOC(=O)C1(c2ccc([N+](=O)[O-])cc2)CCCC1 | 5.52 | 390
CCN(CC)CCOC(=O)C1(c2ccc(I)cc2)CCCC1 | 2.11 | 123
CCN(CC)CCOC(=O)C1(c2ccc(C#N)cc2)CCCC1 | 8.12 | 213
CCN(CC)CCOC(=O)C1(c2ccccc2)CCCC1 | 1.21 | 31.7
CCN(CC)CCOC(=O)C1(C2CCCCC2)CCCCC1 [DICYCLOMINE] |  | 47.3
